# Experiments:
# [1] = target: T1, BB3 (h) (Homo sapiens, UniProt P32247); assay: CEREP binding assay; details: agonist radioligand, read-out: % Inhibition of Control Specific Binding
# T1 construct: purchased Millipore (KinaseProfiler) kinase panel
# [2] = target: T2, MC1 (Mus musculus, UniProt Q01727); assay: CEREP binding assay; details: agonist radioligand, read-out: % Inhibition of Control Specific Binding
# T2 construct: purchased Millipore (KinaseProfiler) kinase panel
# [3] = target: T3, KDR (Homo sapiens, UniProt P35968); assay: Kinase panel (Millipore); assay type: biochemical; details: 1 µM, ATP at Km
# T3 construct: purchased Millipore (KinaseProfiler) kinase panel
# [4] = target: T4, EPHB1 (Homo sapiens, UniProt P54762); assay: Kinase panel (Millipore); assay type: biochemical; details: 1 µM, ATP at Km
# T4 construct: purchased Millipore (KinaseProfiler) kinase panel
# [5] = target: T5, LOK (Homo sapiens, UniProt O94804); assay: Kinase panel (Millipore); assay type: biochemical; details: 1 µM, ATP at Km
# T5 construct: purchased Millipore (KinaseProfiler) kinase panel
# [6] = target: LYN (Homo sapiens, UniProt P07948); assay: Kinase panel (Millipore); assay type: biochemical; details: 1 µM, ATP at Km
# LYN, sequence (P07948 whole entry): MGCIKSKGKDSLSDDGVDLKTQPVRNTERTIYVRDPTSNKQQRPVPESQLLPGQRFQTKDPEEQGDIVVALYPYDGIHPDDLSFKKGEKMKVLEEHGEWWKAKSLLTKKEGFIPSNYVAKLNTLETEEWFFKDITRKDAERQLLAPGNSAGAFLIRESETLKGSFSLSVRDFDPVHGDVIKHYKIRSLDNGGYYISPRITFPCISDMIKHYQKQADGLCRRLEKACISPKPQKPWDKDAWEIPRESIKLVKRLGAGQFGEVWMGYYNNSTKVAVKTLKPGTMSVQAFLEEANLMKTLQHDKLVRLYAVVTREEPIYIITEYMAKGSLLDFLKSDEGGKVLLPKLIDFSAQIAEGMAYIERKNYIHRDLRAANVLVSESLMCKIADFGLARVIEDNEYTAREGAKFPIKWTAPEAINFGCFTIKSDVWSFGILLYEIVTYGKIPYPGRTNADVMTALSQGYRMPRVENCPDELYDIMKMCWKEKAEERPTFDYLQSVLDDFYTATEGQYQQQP
# [7] = target: T6, EPHB4 (Homo sapiens, UniProt P54760); assay: Kinase panel (Millipore); assay type: biochemical; details: 1 µM, ATP at Km
# T6 construct: purchased Millipore (KinaseProfiler) kinase panel
# [8] = target: T7, BRK (Homo sapiens, UniProt Q13882); assay: Kinase panel (Millipore); assay type: biochemical; details: 1 µM, ATP at Km
# T7 construct: purchased Millipore (KinaseProfiler) kinase panel
# T7 sequence (Q13882 whole entry): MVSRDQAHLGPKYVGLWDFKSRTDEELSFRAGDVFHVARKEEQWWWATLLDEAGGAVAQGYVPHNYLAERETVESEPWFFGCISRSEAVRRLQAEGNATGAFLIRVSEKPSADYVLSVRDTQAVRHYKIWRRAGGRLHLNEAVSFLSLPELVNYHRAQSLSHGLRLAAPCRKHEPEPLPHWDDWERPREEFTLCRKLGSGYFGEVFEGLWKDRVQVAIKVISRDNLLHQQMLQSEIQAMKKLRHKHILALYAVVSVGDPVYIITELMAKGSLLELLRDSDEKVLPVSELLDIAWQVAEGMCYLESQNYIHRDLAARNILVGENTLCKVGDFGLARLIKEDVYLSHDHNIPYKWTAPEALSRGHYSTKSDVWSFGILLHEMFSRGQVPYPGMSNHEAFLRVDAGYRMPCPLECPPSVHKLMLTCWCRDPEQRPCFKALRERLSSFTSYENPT
# [9] = target: T8, MAPKAP-K2 (Homo sapiens, UniProt P49137); assay: Kinase panel (Millipore); assay type: biochemical; details: 1 µM, ATP at Km
# T8 construct: purchased Millipore (KinaseProfiler) kinase panel
# [10] = target: T9, BRSK2 (Homo sapiens, UniProt Q8IWQ3); assay: Kinase panel (Millipore); assay type: biochemical; details: 1 µM, ATP at Km
# T9 construct: purchased Millipore (KinaseProfiler) kinase panel
# [11] = target: T10, MRCKALPHA (Homo sapiens, UniProt Q5VT25); assay: Kinase panel (Millipore); assay type: biochemical; details: 1 µM, ATP at Km
# T10 construct: purchased Millipore (KinaseProfiler) kinase panel
# [12] = target: HCK (Homo sapiens, UniProt P08631); assay: Kinase panel (Millipore); assay type: biochemical; details: 1 µM, ATP at Km
# HCK, sequence (P08631 whole entry): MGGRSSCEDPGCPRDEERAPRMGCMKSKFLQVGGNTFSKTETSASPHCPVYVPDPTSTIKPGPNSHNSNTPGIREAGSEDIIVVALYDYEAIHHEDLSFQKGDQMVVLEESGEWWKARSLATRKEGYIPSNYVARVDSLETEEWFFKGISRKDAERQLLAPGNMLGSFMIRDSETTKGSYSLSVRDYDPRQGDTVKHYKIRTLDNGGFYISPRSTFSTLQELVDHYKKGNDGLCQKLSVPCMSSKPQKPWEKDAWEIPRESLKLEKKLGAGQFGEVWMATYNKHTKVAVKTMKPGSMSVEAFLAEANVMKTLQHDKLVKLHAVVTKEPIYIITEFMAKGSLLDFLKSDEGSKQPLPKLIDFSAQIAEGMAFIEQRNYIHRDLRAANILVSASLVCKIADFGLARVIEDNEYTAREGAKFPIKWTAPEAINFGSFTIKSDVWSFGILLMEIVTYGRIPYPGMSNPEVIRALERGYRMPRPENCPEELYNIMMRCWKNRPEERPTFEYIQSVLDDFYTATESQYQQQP
# [13] = target: T11, HIPK3 (Homo sapiens, UniProt Q9H422); assay: Kinase panel (Millipore); assay type: biochemical; details: 1 µM, ATP at Km
# T11 construct: purchased Millipore (KinaseProfiler) kinase panel
# [14] = target: T12, NEK11 (Homo sapiens, UniProt Q8NG66); assay: Kinase panel (Millipore); assay type: biochemical; details: 1 µM, ATP at Km
# T12 construct: purchased Millipore (KinaseProfiler) kinase panel
# [15] = target: DYRK2 (Homo sapiens, UniProt Q92630); assay: Kinase panel (Millipore); assay type: biochemical; details: 1 µM, ATP at Km
# DYRK2, sequence (Q92630 whole entry): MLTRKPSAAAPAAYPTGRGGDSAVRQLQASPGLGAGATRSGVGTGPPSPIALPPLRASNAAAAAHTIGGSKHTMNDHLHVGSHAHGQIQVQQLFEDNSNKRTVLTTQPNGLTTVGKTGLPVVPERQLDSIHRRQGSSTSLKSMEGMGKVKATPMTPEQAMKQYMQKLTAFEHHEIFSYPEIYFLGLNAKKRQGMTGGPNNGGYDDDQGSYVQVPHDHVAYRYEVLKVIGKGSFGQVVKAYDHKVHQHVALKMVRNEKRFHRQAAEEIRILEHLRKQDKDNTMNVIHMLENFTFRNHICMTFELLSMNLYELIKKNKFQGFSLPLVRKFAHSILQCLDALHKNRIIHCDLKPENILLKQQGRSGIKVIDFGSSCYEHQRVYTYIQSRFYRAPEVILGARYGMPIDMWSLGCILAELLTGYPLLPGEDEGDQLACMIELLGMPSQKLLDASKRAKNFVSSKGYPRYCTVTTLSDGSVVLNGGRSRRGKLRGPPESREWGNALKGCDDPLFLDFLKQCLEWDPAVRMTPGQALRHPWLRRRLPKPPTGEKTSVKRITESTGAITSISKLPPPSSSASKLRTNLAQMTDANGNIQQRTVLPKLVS
# [16] = target: RSK2 (Homo sapiens, UniProt P51812); assay: Kinase panel (Millipore); assay type: biochemical; details: 1 µM, ATP at Km
# [17] = target: SAPK4 (Homo sapiens, UniProt O15264); assay: Kinase panel (Millipore); assay type: biochemical; details: 1 µM, ATP at Km
# [18] = target: PKBBETA (Homo sapiens, UniProt P31751); assay: Kinase panel (Millipore); assay type: biochemical; details: 1 µM, ATP at Km
# [19] = target: T13, SRPK1 (Homo sapiens, UniProt Q96SB4); assay: Kinase panel (Millipore); assay type: biochemical; details: 1 µM, ATP at Km
# T13 construct: purchased Millipore (KinaseProfiler) kinase panel
# [20] = target: PKCBII (Homo sapiens, UniProt P05771); assay: Kinase panel (Millipore); assay type: biochemical; details: 1 µM, ATP at Km
# [21] = target: SYK (Homo sapiens, UniProt P43405); assay: Kinase panel (Millipore); assay type: biochemical; details: 1 µM, ATP at Km
# [22] = target: T14, TBK1 (Homo sapiens, UniProt Q9UHD2); assay: Kinase panel (Millipore); assay type: biochemical; details: 1 µM, ATP at Km
# T14 construct: purchased Millipore (KinaseProfiler) kinase panel
# [23] = target: T15, TSSK1 (Homo sapiens, UniProt Q9BXA7); assay: Kinase panel (Millipore); assay type: biochemical; details: 1 µM, ATP at Km
# T15 construct: purchased Millipore (KinaseProfiler) kinase panel
# T15 sequence (Q9BXA7 whole entry): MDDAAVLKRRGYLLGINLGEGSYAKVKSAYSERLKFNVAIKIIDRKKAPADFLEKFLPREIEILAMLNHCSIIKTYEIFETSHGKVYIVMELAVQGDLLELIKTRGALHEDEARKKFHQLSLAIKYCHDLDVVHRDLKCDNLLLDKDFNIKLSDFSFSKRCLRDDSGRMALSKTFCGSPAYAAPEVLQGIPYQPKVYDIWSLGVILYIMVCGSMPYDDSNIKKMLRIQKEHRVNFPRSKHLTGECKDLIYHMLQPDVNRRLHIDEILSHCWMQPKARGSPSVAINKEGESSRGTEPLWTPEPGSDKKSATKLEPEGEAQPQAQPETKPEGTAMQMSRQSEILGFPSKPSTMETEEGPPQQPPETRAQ
# [24] = target: T16, PKCZETA (Homo sapiens, UniProt Q05513); assay: Kinase panel (Millipore); assay type: biochemical; details: 1 µM, ATP at Km
# T16 construct: purchased Millipore (KinaseProfiler) kinase panel
# T16 sequence (Q05513 whole entry): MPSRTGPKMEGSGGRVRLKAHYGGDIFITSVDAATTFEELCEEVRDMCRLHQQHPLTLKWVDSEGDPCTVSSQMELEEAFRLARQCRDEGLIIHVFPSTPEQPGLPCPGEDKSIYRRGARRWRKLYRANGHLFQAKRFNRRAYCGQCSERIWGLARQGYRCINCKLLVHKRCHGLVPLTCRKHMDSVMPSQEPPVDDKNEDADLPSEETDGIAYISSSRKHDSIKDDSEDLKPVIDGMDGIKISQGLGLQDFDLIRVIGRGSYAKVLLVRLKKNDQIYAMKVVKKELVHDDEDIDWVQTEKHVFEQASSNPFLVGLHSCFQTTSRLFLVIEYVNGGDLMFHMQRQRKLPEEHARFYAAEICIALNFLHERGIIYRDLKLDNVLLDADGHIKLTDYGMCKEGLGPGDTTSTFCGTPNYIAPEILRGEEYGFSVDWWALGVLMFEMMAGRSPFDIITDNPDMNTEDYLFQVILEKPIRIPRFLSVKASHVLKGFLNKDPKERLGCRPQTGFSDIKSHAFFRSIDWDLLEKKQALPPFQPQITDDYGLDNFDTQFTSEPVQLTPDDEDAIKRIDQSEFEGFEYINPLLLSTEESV
# [25] = target: T17, ACK1 (Homo sapiens, UniProt Q07912); assay: Kinase panel (Millipore); assay type: biochemical; details: 1 µM, ATP at Km
# T17 construct: purchased Millipore (KinaseProfiler) kinase panel
# T17 sequence (Q07912 whole entry): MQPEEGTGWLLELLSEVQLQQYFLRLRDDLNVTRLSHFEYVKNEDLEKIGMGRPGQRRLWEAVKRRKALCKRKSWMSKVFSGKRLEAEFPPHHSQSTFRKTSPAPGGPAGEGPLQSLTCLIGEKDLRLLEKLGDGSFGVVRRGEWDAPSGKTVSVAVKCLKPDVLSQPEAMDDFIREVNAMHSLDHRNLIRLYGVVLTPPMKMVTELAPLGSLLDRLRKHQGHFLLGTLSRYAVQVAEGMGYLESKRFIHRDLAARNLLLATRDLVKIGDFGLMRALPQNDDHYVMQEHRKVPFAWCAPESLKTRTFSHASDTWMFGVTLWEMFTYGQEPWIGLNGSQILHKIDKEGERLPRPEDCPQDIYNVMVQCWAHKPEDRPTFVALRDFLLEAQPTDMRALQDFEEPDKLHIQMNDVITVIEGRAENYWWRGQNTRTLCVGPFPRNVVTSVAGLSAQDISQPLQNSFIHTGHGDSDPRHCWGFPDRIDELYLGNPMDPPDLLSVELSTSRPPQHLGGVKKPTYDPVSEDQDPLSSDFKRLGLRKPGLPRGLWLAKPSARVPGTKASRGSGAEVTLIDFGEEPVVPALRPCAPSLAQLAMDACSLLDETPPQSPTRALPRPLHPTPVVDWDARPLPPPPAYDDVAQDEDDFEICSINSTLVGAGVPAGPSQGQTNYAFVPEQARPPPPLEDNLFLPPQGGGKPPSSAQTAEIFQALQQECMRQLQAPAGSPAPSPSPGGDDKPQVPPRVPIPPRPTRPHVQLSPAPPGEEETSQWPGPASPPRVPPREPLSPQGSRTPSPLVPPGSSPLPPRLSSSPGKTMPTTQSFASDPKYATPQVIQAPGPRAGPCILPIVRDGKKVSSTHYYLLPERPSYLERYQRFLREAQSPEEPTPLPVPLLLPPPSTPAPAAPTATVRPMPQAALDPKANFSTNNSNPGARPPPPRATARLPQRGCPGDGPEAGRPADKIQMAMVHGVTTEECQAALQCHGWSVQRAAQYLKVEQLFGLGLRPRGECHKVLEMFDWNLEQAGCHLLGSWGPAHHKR
# [26] = target: ZIPK (Homo sapiens, UniProt O43293); assay: Kinase panel (Millipore); assay type: biochemical; details: 1 µM, ATP at Km
# [27] = target: ROCK-II (Homo sapiens, UniProt O75116); assay: Kinase panel (Millipore); assay type: biochemical; details: 1 µM, ATP at Km
# [28] = target: T18, TEC ACTIVATED (Homo sapiens, UniProt P42680); assay: Kinase panel (Millipore); assay type: biochemical; details: 1 µM, ATP at Km
# T18 construct: purchased Millipore (KinaseProfiler) kinase panel
# [29] = female, Beagle, dog, in vivo
# [30] = tested on: kainate; details: 10 µM, agonist radioligand
# [31] = tested on: MT3 (ML2); details: 10 µM, agonist radioligand
# [32] = tested on: AR (h); details: 10 µM, agonist radioligand
# [33] = tested on: Ca2+ channel (L, diltiazem site) (benzothiazepines); details: 10 µM, antagonist radioligand
# [34] = tested on: RY3 (ryanodine); details: 10 µM, agonist radioligand
# [35] = target: CKIT(D816V) (Homo sapiens, UniProt P10721, D816V); details: 1 µM, ATP at Km
# CKIT(D816V), sequence (P10721 544-976 D816V limits assumed): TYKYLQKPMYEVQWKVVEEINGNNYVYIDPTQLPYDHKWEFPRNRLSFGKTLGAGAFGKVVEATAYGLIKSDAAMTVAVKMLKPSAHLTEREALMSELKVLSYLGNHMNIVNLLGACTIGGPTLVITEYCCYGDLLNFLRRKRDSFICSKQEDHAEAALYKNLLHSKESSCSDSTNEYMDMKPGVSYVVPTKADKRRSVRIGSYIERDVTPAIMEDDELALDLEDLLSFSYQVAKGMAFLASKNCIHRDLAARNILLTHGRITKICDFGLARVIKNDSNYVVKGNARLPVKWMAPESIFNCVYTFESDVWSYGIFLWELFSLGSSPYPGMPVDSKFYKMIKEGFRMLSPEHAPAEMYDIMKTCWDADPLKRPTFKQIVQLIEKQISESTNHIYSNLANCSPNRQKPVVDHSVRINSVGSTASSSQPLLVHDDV
# [36] = target: CDK1/CYCLINB (Homo sapiens, UniProt P06493); details: 1 µM, ATP at Km
# [37] = target: CDK5/P35 (Homo sapiens, UniProt Q00535); details: 1 µM, ATP at Km
# [38] = target: CDK6/CYCLIND3 (Homo sapiens, UniProt Q00534); details: 1 µM, ATP at Km
# [39] = target: EGFR(T790M,L858R) (Homo sapiens, UniProt P00533, L858R/T790M); details: 1 µM, ATP at Km
# [40] = target: SAPK2A(T106M) (Homo sapiens, UniProt Q16539, T106M); details: 1 µM, ATP at Km
# [41] = target: […](V561D) (Homo sapiens, UniProt P16234, V561D); details: 1 µM, ATP at Km
# [42] = target: TIE2(R849W) (Homo sapiens, UniProt Q02763, R849W); details: 1 µM, ATP at Km
# [43] = target: CKIT(V560G) (Homo sapiens, UniProt P10721, V560G); details: 1 µM, ATP at Km
# CKIT(V560G), sequence (P10721 544-976 V560G limits assumed): as the sequence (P10721 544-976 D816V limits assumed) above, with V17G, V273D counted along it
# [44] = in vivo; details: female, NMRI, mouse, po, 0.5 mg/kg
# T1 sequence (P32247 whole entry): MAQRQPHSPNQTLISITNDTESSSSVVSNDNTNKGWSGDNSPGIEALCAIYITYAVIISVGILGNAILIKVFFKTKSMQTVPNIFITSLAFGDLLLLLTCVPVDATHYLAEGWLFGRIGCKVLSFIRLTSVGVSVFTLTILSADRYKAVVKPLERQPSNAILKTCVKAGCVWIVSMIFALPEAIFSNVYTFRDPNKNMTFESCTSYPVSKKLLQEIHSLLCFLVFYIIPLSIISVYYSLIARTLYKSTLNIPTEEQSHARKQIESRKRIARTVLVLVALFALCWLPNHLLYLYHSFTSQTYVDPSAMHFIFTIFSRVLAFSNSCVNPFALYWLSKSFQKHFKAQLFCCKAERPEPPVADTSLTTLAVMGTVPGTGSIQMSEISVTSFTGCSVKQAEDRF
smiles,measurement,setting,value
"Cn1ncc2cc(-c3cnc(N)c(Cl)c3N3CCC4(CCNC4=O)CC3)ccc21 [Compound 109, 8-(2-Amino-3-chloro-5-(1-methyl-1H-indazol-5-yl)pyridin-4-yl)-2,8-diazaspiro[4.5]decan-1-one]",inhibition at 10 µM,[1],-11%
same,inhibition at 10 µM,[2],-8%
same,% effect,[3],-26%
same,% effect,[4],3%
same,% effect,[5],11%
same,% effect,[6],-3%
same,% effect,[7],-3%
same,% effect,[8],13%
same,% effect,[9],1%
same,% effect,[10],0%
same,% effect,[11],-3%
same,% effect,[12],-4%
same,% effect,[13],18%
same,% effect,[14],12%
same,% effect,[15],-9%
same,% effect,[16],-11%
same,% effect,[17],-1%
same,% effect,[18],-21%
same,% effect,[19],-8%
same,% effect,[20],3%
same,% effect,[21],2%
same,% effect,[22],6%
same,% effect,[23],-7%
same,% effect,[24],1%
same,% effect,[25],-11%
same,% effect,[26],6%
same,% effect,[27],-10%
same,% effect,[28],-1%
same,LBF,[29],43%
same,% Inhibition of Control Specific Binding,[30],9%
same,% Inhibition of Control Specific Binding,[31],71%
same,% Inhibition of Control Specific Binding,[32],-2%
same,% Inhibition of Control Specific Binding,[33],5%
same,% Inhibition of Control Specific Binding,[34],1%
same,% effect,[35],-7%
same,% effect,[36],-12%
same,% effect,[37],1%
same,% effect,[38],5%
same,% effect,[39],0%
same,% effect,[40],2%
same,% effect,[41],0%
same,% effect,[42],-9%
same,% effect,[43],-5%
same,bioavailability,[44],30%
